Data on one compound can be found in US20010046704A1, “Methods and compositions to activate genes in cells” (priority 2000, published 2001).

One assay has as its system DNA. The note with it: compared with other mutagenic agents; cited from earlier work.
In the next assay the test system is mouse ES stem cells. The experiment in a line: Chemical mutagenesis of cell suspensions, cytotoxicity of the mutagen. It is filed as cell-based. The note with it: cell suspensions (eg, mouse ES stem cells) exposed to doses as high as 0.4 mg/mL for 2 to 3 hours. The text has this: In this regard, numerous chemical mutagens have been described and used in the past, as described for instance by Russell et al., Biology of Mammalian Germ Cell Mutagenesis, Cold Spring Harbor Laboratory Press, 1990:271-285; Rinchik E. M., Trends in Genetics, 1991;7(1):15-21; or Marker et al., Genetics, 1997;145(2):435-443. For mutagenesis, cells are preferably treated with increasing amounts of the chemical mutagen(s) either in whole animals or in cell suspensions, to assess the cytotoxicity of the chemical mutagen(s). Typical doses have been described in the literature as cited above. For example, cell suspensions (eg, mouse ES stem cells) are exposed to doses of N-ethyl-N-nitrosourea (ENU) as high as 0.4 mg/mL for 2 to 3 hours, which results in more than 98% of the cells dying. […] Other mutagens include for instance intercalating agents, alkylating agents, strand breaking agents, mismatch-inducing agents, etc.

On to `CCN(N=O)C(N)=O` [ENU, N-ethyl-N-nitrosourea], for which the “efficiency in generating mutations relative to other agents” value in the assay on DNA is “at least 10 times”. For the same compound, the cells dying result with mouse ES stem cells is recorded as “more than 98%”.
